Measured values as given in patent US20020137929A1, “1 - (3-heterocyclylphenyl) isothiourea, -isourea, -guanidine and -amidine herbicidal agents” (Intellectual Property Department, BASF Aktiengesellschaft, priority 1998, published 2002).

Key:
[1] = tested on: IPOHE (Morningglory, Ivyleaf); assay: Preemergence herbicidal evaluation; type: in vivo, Ipomoea hederacea; conditions: rated 4-5 weeks after treatment, rating scale 0-9
How it was run: (§1)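 Visual 0-9 rating vs control (stand, vigor, malformation, size, chlorosis, overall appearance), scored 4-5 wk after spraying. Seeded soil cups were treated preemergence with compound in aqueous acetone, ~0.0156-0.500 kg/ha equivalent.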

[2] = tested on: IPOHE (Morningglory, Ivyleaf); assay: Postemergence herbicidal evaluation; type: in vivo, Ipomoea hederacea; conditions: postemergence
How it was run: (§2)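 Seedlings grown about two weeks were sprayed at 40 psi with compound dispersed in 50/50 acetone/water plus 0.5% TWEEN 20, at about 0.0156 to 0.500 kg/ha. Plants were kept in the greenhouse and scored 4–5 weeks later on a 0–9 visual scale against untreated controls.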

ABUTH (Velvetleaf) [3] = assay: Preemergence herbicidal evaluation; type: in vivo, Abutilon theophrasti; conditions: rated 4-5 weeks after treatment, rating scale 0-9
How it was run: as §1

AMBEL (Ragweed, Common) = assay: Preemergence herbicidal evaluation; type: in vivo, Ambrosia artemisifolia; conditions: rated 4-5 weeks after treatment, rating scale 0-9
How it was run: as §1

ABUTH (Velvetleaf) [4] = assay: Postemergence herbicidal evaluation; type: in vivo, Abutilon theophrasti; conditions: postemergence
How it was run: as §2

ZEAMX (Corn, Field) = assay: Postemergence herbicidal evaluation; type: in vivo, Zea mays; conditions: postemergence
How it was run: as §2

CASOB (Sicklepod) = assay: Preemergence herbicidal evaluation; type: in vivo, Cassia obtusifolia; conditions: rated 4-5 weeks after treatment, rating scale 0-9
How it was run: as §1

[5] = tested on: GLXMAW (Soybean, Williams); assay: Postemergence herbicidal evaluation; type: in vivo, Glycine max, (L.) Merr. cv Williams; conditions: postemergence
How it was run: as §2

CYPSE (Flatsedge) = assay: Preemergence weed control under flooded paddy conditions; type: in vivo, Cyperus serotinus; conditions: rated 3-4 weeks after treatment
How it was run: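 Seeds or propagules sown in silt loam kept flooded 1.5-3 cm; compounds in 50/50 acetone/water pipetted into flood water at about 0.0313 to 0.500 kg/ha. Greenhouse; visual 0-9 rating versus untreated control 3-4 weeks after treatment.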

ECHCG (Barnyardgrass) = assay: Preemergence herbicidal evaluation; type: in vivo, Echinochloa crus-galli; conditions: rated 4-5 weeks after treatment, rating scale 0-9
How it was run: as §1

[6] = tested on: ECHORC (Watergrass (Calif.)); assay: Preemergence weed control under flooded paddy conditions; type: in vivo, Echinochloa oryzoides; conditions: rated 3-4 weeks after treatment
How it was run: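 Ratings on a 0-9 visual scale cover stand, vigor, malformation, size, chlorosis and overall appearance relative to a control, taken three to four weeks post-treatment. Application was into flood water over freshly sown silt loam at roughly 0.0313 to 0.500 kg/ha.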

SETVI (Foxtail, Green) = assay: Postemergence herbicidal evaluation; type: in vivo, Setaria viridis; conditions: postemergence
How it was run: as §2

SMILES: Cc1ccc(CN2C(=O)CSC2=Nc2cc(-n3c(=O)cc(C(F)(F)F)n(C)c3=O)c(F)cc2Cl)cc1Cl [Compound 149, 3-{4-Chloro-5-{[3-(3-chloro-4-methylbenzyl)-4-oxo-2-thiazolidinylidene]amino}-2-fluorophenyl}-1-methyl-6-(trifluoromethyl)-2,4(1H,3H)-pyrimidinedione]
- Preemergence herbicidal rating IPOHE ([1]; rate 0.1250 kg/ha): 0.0
- Preemergence herbicidal rating IPOHE ([1]; rate 0.2500 kg/ha): 2.0
- Herbicidal rating IPOHE ([2]; rate 0.0156 kg/ha): 9.0
- Herbicidal rating IPOHE ([2]; rate 0.0313 kg/ha): 9.0
- Herbicidal rating IPOHE ([2]; rate 0.0625 kg/ha): 9.0
- Preemergence herbicidal rating ABUTH (ABUTH (Velvetleaf) [3]; rate 0.1250 kg/ha): 3.0
- Preemergence herbicidal rating ABUTH (ABUTH (Velvetleaf) [3]; rate 0.2500 kg/ha): 7.0
- Preemergence herbicidal rating AMBEL (AMBEL (Ragweed, Common); rate 0.1250 kg/ha): 0.0
- Preemergence herbicidal rating AMBEL (AMBEL (Ragweed, Common); rate 0.2500 kg/ha): 0.0
- Herbicidal rating ABUTH (ABUTH (Velvetleaf) [4]; rate 0.0156 kg/ha): 4.0
- Herbicidal rating ABUTH (ABUTH (Velvetleaf) [4]; rate 0.0313 kg/ha): 8.0
- Herbicidal rating ABUTH (ABUTH (Velvetleaf) [4]; rate 0.0625 kg/ha): 9.0
- Herbicidal rating ZEAMX (ZEAMX (Corn, Field); rate 0.0156 kg/ha): 4.0
- Herbicidal rating ZEAMX (ZEAMX (Corn, Field); rate 0.0313 kg/ha): 4.5
- Herbicidal rating ZEAMX (ZEAMX (Corn, Field); rate 0.0625 kg/ha): 4.5
- Preemergence herbicidal rating CASOB (CASOB (Sicklepod); rate 0.1250 kg/ha): 0.0
- Preemergence herbicidal rating CASOB (CASOB (Sicklepod); rate 0.2500 kg/ha): 0.0
- Herbicidal rating GLXMAW ([5]; rate 0.0156 kg/ha): 4.0
- Herbicidal rating GLXMAW ([5]; rate 0.0313 kg/ha): 4.5
- Herbicidal rating GLXMAW ([5]; rate 0.0625 kg/ha): 4.5
- herbicidal effect rating, CYPSE (CYPSE (Flatsedge); 0.0313 kg/ha): 0.0
- herbicidal effect rating, CYPSE (CYPSE (Flatsedge); 0.0625 kg/ha): 0.0
- herbicidal effect rating, CYPSE (CYPSE (Flatsedge); 0.1250 kg/ha): 0.0
- herbicidal effect rating, CYPSE (CYPSE (Flatsedge); 0.2500 kg/ha): 0.0
- Preemergence herbicidal rating ECHCG (ECHCG (Barnyardgrass); rate 0.1250 kg/ha): 0.0
- Preemergence herbicidal rating ECHCG (ECHCG (Barnyardgrass); rate 0.2500 kg/ha): 0.0
- herbicidal effect rating, ECHORC ([6]; 0.0313 kg/ha): 2.0
- herbicidal effect rating, ECHORC ([6]; 0.0625 kg/ha): 3.0
- herbicidal effect rating, ECHORC ([6]; 0.1250 kg/ha): 6.0
- herbicidal effect rating, ECHORC ([6]; 0.2500 kg/ha): 7.0
- Herbicidal rating SETVI (SETVI (Foxtail, Green); rate 0.0156 kg/ha): 0.0
- Herbicidal rating SETVI (SETVI (Foxtail, Green); rate 0.0313 kg/ha): 0.0
- Herbicidal rating SETVI (SETVI (Foxtail, Green); rate 0.0625 kg/ha): 0.0

SMILES: Cn1c(C(F)(F)F)cc(=O)n(-c2cc(N=C3SCC(=O)N3Cc3cc(Cl)cc(Cl)c3)c(Cl)cc2F)c1=O [Compound 150, 3-{4-Chloro-5-{[3-(3,5-dichlorobenzyl)-4-oxo-2-thiazolidinylidene]amino}-2-fluorophenyl}-1-methyl-6-(trifluoromethyl)-2,4(1H,3H)-pyrimidinedione]
- Preemergence herbicidal rating IPOHE ([1]; rate 0.0313 kg/ha): 0.0
- Preemergence herbicidal rating IPOHE ([1]; rate 0.0625 kg/ha): 0.0
- Preemergence herbicidal rating IPOHE ([1]; rate 0.1250 kg/ha): 9.0
- Preemergence herbicidal rating IPOHE ([1]; rate 0.2500 kg/ha): 9.0
- Herbicidal rating IPOHE ([2]; rate 0.0156 kg/ha): 9.0
- Herbicidal rating IPOHE ([2]; rate 0.0313 kg/ha): 9.0
- Herbicidal rating IPOHE ([2]; rate 0.0625 kg/ha): 9.0
- Preemergence herbicidal rating ABUTH (ABUTH (Velvetleaf) [3]; rate 0.0313 kg/ha): 0.0
- Preemergence herbicidal rating ABUTH (ABUTH (Velvetleaf) [3]; rate 0.0625 kg/ha): 4.0
- Preemergence herbicidal rating ABUTH (ABUTH (Velvetleaf) [3]; rate 0.1250 kg/ha): 9.0
- Preemergence herbicidal rating ABUTH (ABUTH (Velvetleaf) [3]; rate 0.2500 kg/ha): 9.0
- Preemergence herbicidal rating AMBEL (AMBEL (Ragweed, Common); rate 0.0313 kg/ha): 0.0
- Preemergence herbicidal rating AMBEL (AMBEL (Ragweed, Common); rate 0.0625 kg/ha): 0.0
- Preemergence herbicidal rating AMBEL (AMBEL (Ragweed, Common); rate 0.1250 kg/ha): 3.0
- Preemergence herbicidal rating AMBEL (AMBEL (Ragweed, Common); rate 0.2500 kg/ha): 7.0
- Herbicidal rating ABUTH (ABUTH (Velvetleaf) [4]; rate 0.0156 kg/ha): 9.0
- Herbicidal rating ABUTH (ABUTH (Velvetleaf) [4]; rate 0.0313 kg/ha): 9.0
- Herbicidal rating ABUTH (ABUTH (Velvetleaf) [4]; rate 0.0625 kg/ha): 9.0
- Herbicidal rating ZEAMX (ZEAMX (Corn, Field); rate 0.0156 kg/ha): 4.0
- Herbicidal rating ZEAMX (ZEAMX (Corn, Field); rate 0.0313 kg/ha): 4.0
- Herbicidal rating ZEAMX (ZEAMX (Corn, Field); rate 0.0625 kg/ha): 4.0
- Preemergence herbicidal rating CASOB (CASOB (Sicklepod); rate 0.0313 kg/ha): 0.0
- Preemergence herbicidal rating CASOB (CASOB (Sicklepod); rate 0.0625 kg/ha): 2.0
- Preemergence herbicidal rating CASOB (CASOB (Sicklepod); rate 0.1250 kg/ha): 1.0
- Preemergence herbicidal rating CASOB (CASOB (Sicklepod); rate 0.2500 kg/ha): 2.0
- Herbicidal rating GLXMAW ([5]; rate 0.0156 kg/ha): 5.0
- Herbicidal rating GLXMAW ([5]; rate 0.0313 kg/ha): 5.5
- Herbicidal rating GLXMAW ([5]; rate 0.0625 kg/ha): 6.0
- herbicidal effect rating, CYPSE (CYPSE (Flatsedge); 0.1250 kg/ha): 9.0
- herbicidal effect rating, CYPSE (CYPSE (Flatsedge); 0.2500 kg/ha): 9.0
- Preemergence herbicidal rating ECHCG (ECHCG (Barnyardgrass); rate 0.0313 kg/ha): 0.0
- Preemergence herbicidal rating ECHCG (ECHCG (Barnyardgrass); rate 0.0625 kg/ha): 0.0
- Preemergence herbicidal rating ECHCG (ECHCG (Barnyardgrass); rate 0.1250 kg/ha): 2.0
- Preemergence herbicidal rating ECHCG (ECHCG (Barnyardgrass); rate 0.2500 kg/ha): 4.0
- herbicidal effect rating, ECHORC ([6]; 0.0313 kg/ha): 6.0
- herbicidal effect rating, ECHORC ([6]; 0.0625 kg/ha): 7.0
- herbicidal effect rating, ECHORC ([6]; 0.1250 kg/ha): 9.0
- herbicidal effect rating, ECHORC ([6]; 0.2500 kg/ha): 9.0
- Herbicidal rating SETVI (SETVI (Foxtail, Green); rate 0.0156 kg/ha): 1.0
- Herbicidal rating SETVI (SETVI (Foxtail, Green); rate 0.0313 kg/ha): 1.0
- Herbicidal rating SETVI (SETVI (Foxtail, Green); rate 0.0625 kg/ha): 5.0
